# Results taken from patent US4435583A, “2-Halo-substituted monic acid A useful as antibacterial compounds” (Beecham Group p.l.c., priority 1981, dated 1984).
# What was measured:
# Assay type in all cases: cell-based
# [1] = test system: M. gallisepticum S6; assay: In vitro anti-mycoplasmal MIC; details: Friis broth, 0.9% agarose, 6 days, 37° C.
# [2] = test system: M. suipneumoniae NCTC 10110; assay: In vitro anti-mycoplasmal MIC; details: Friis broth, 0.9% agarose, 6 days, 37° C.
# [3] = test system: M. suipneumoniae JF435; assay: In vitro anti-mycoplasmal MIC; details: Friis broth, 0.9% agarose, 6 days, 37° C.
# [4] = test system: M. bovis NCTC 10131; assay: microbe, parasite or virus in culture; details: M. bovis NCTC 10131; Friis broth, 0.9% agarose; 6 days, 37° C.
# [5] = test system: Ps. aeruginosa NCTC 10662; assay: MIC against human bacteria; details: nutrient agar, 5% chocolated horse blood, 18 hours, 37° C.
# Procedure: (§1) The values were determined by serial dilutions in nutrient agar with 5% chocolated horse blood after incubations for 18 hours at 37° C.
# [6] = test system: Strep. 641848-C; assay: MIC against human bacteria; details: nutrient agar, 5% chocolated horse blood, 18 hours, 37° C.
# Procedure: as §1
# [7] = test system: E. coli NCTC 10418; assay: MIC against human bacteria; details: nutrient agar, 5% chocolated horse blood, 18 hours, 37° C.
# Procedure: as §1
# [8] = test system: Staph. aureus W2827; assay: MIC against human bacteria; details: nutrient agar, 5% chocolated horse blood, 18 hours, 37° C.
# Procedure: as §1
# [9] = test system: Bacillus subtilis 6633; assay: MIC against human bacteria; details: nutrient agar, 5% chocolated horse blood, 18 hours, 37° C.
# Procedure: as §1
# [10] = test system: K. aerogenes A; assay: MIC against human bacteria; details: nutrient agar, 5% chocolated horse blood, 18 hours, 37° C.
# Procedure: as §1
# [11] = test system: Strep. faecalis I; assay: MIC against human bacteria; details: nutrient agar, 5% chocolated horse blood, 18 hours, 37° C.
# Procedure: as §1
# [12] = test system: Neisseria catarrhalis 1502; assay: MIC against human bacteria; details: nutrient agar, 5% chocolated horse blood, 18 hours, 37° C.
# Procedure: as §1
# [13] = test system: Strep. 2788-B; assay: MIC against human bacteria; details: nutrient agar, 5% chocolated horse blood, 18 hours, 37° C.
# Procedure: as §1
# [14] = test system: Strep. pneumoniae CN33; assay: MIC against human bacteria; details: nutrient agar, 5% chocolated horse blood, 18 hours, 37° C.
# Procedure: as §1
# [15] = test system: Staph. aureus Oxford; assay: MIC against human bacteria; details: nutrient agar, 5% chocolated horse blood, 18 hours, 37° C.
# Procedure: as §1
# [16] = test system: E. coli ESS; assay: MIC against human bacteria; details: nutrient agar, 5% chocolated horse blood, 18 hours, 37° C.
# Procedure: as §1
# [17] = test system: Haemophilus influenzae Wy21; assay: MIC against human bacteria; details: nutrient agar, 5% chocolated horse blood, 18 hours, 37° C., read-out: MIC
# Procedure: as §1
# [18] = test system: Haemophilus influenzae Q1; assay: MIC against human bacteria; details: nutrient agar, 5% chocolated horse blood, 18 hours, 37° C., read-out: MIC
# Procedure: as §1
# [19] = test system: Corynebacterium xerosis 9755; assay: MIC against human bacteria; details: nutrient agar, 5% chocolated horse blood, 18 hours, 37° C.
# Procedure: as §1
# [20] = test system: Sarcina lutea 8340; assay: MIC against human bacteria; details: nutrient agar, 5% chocolated horse blood, 18 hours, 37° C.
# Procedure: as §1
# [21] = test system: P. mirabilis 889; assay: MIC against human bacteria; details: nutrient agar, 5% chocolated horse blood, 18 hours, 37° C.
# Procedure: as §1
# [22] = test system: Strep. pyrogenes R80/421-A; assay: MIC against human bacteria; details: nutrient agar, 5% chocolated horse blood, 18 hours, 37° C.
# Procedure: as §1
# [23] = test system: Past. multocida 1633; assay: MIC against human bacteria; details: nutrient agar, 5% chocolated horse blood, 18 hours, 37° C.
# Procedure: as §1
# [24] = test system: Staph. aureus Russell; assay: MIC against human bacteria; details: nutrient agar, 5% chocolated horse blood, 18 hours, 37° C.
# Procedure: as §1
# [25] = test system: M. suipneumoniae PW/C/210; assay: In vitro anti-mycoplasmal MIC; details: Mesomycoplasma hyopneumoniae, 144 h, Friis broth, 0.9% agarose, 6 days, 37° C., read-out: MIC
# [26] = test system: M. suipneumoniae UCD 1; assay: In vitro anti-mycoplasmal MIC; details: Friis broth, 0.9% agarose, 6 days, 37° C.
# [27] = test system: M. hyorhinis ATCC 23234; assay: In vitro anti-mycoplasmal MIC; details: Mesomycoplasma hyorhinis, ATCC23234, 144 h, Friis broth, 0.9% agarose, 6 days, 37° C., read-out: MIC
# [28] = test system: M. suipneumoniae ATCC 25095; assay: In vitro anti-mycoplasmal MIC; details: Friis broth, 0.9% agarose, 6 days, 37° C.
# [29] = test system: E. coli NCTC 10418; assay: MIC against veterinary bacteria; details: Diagnostic Sensitivity Test Agar, 18 hours, 37° C.
# Procedure: (§2) The values were determined using a two fold serial dilutions in Diagnostic Sensitivity Test Agar with an inoculum of 10^4 organisms and incubation for 18 hours at 37° C.
# [30] = test system: S. typhimurium S18; assay: MIC against veterinary bacteria; details: Diagnostic Sensitivity Test Agar, 18 hours, 37° C.
# Procedure: as §2
# [31] = test system: E. coli E1; assay: MIC against veterinary bacteria; details: Diagnostic Sensitivity Test Agar, 18 hours, 37° C.
# Procedure: as §2
# [32] = test system: S. dublin S7; assay: MIC against veterinary bacteria; details: Diagnostic Sensitivity Test Agar, 18 hours, 37° C.
# Procedure: as §2
# [33] = test system: Bord. bronchiseptica B09; assay: MIC against veterinary bacteria; details: Diagnostic Sensitivity Test Agar, 18 hours, 37° C.
# Procedure: as §2
# [34] = test system: Strep. dysgalactiae SPD1; assay: MIC against veterinary bacteria; details: Diagnostic Sensitivity Test Agar, 18 hours, 37° C.
# Procedure: as §2
# [35] = test system: Strep. suis (group D) SPS11; assay: MIC against veterinary bacteria; details: Diagnostic Sensitivity Test Agar, 18 hours, 37° C.
# Procedure: as §2
# [36] = test system: Erysipelothrix rhusiopathiae NCTC 8163; assay: MIC against veterinary bacteria; details: Diagnostic Sensitivity Test Agar, 18 hours, 37° C.
# Procedure: as §2
# [37] = test system: Past. multocida PA2; assay: MIC against veterinary bacteria; details: Diagnostic Sensitivity Test Agar, 18 hours, 37° C.
# Procedure: as §2
# [38] = test system: Strep. agalactiae SPA1; assay: MIC against veterinary bacteria; details: Diagnostic Sensitivity Test Agar, 18 hours, 37° C.
# Procedure: as §2
# [39] = test system: Staph. aureus Oxford; assay: MIC against veterinary bacteria; details: Diagnostic Sensitivity Test Agar, 18 hours, 37° C.
# Procedure: as §2
# [40] = test system: Corynebacterium pyogenes CY1; assay: MIC against veterinary bacteria; details: Diagnostic Sensitivity Test Agar, 18 hours, 37° C.
# Procedure: as §2
# [41] = test system: Staph. aureus 152; assay: MIC against veterinary bacteria; details: Diagnostic Sensitivity Test Agar, 18 hours, 37° C.
# Procedure: as §2
# [42] = test system: Staph. aureus B4; assay: MIC against veterinary bacteria; details: Diagnostic Sensitivity Test Agar, 18 hours, 37° C.
# Procedure: as §2
# [43] = test system: Past. haemolytica PA5; assay: MIC against veterinary bacteria; details: Diagnostic Sensitivity Test Agar, 18 hours, 37° C.
# Procedure: as §2
# [44] = test system: Strep. uberis SPU1; assay: MIC against veterinary bacteria; details: Strep. uberis SPU1; Diagnostic Sensitivity Test Agar; 18 hours, 37° C.
# Procedure: as §2
# [45] = test system: Bord. bronchiseptica B08; assay: MIC against veterinary bacteria; details: Diagnostic Sensitivity Test Agar, 18 hours, 37° C.
# Procedure: as §2
# [46] = test system: Past. multocida PA1; assay: MIC against veterinary bacteria; details: Diagnostic Sensitivity Test Agar, 18 hours, 37° C.
# Procedure: as §2
# [47] = test system: M. dispar NCTC 10125; assay: In vitro anti-mycoplasmal MIC; details: 144 h, Friis broth, 0.9% agarose, 6 days, 37° C., read-out: MIC
# [48] = test system: M. hyorhinis ATCC 25021; assay: In vitro anti-mycoplasmal MIC; details: Mesomycoplasma hyorhinis, ATCC25021, 144 h, Friis broth, 0.9% agarose, 6 days, 37° C., read-out: MIC
# [49] = test system: M. suipneumoniae TAM 6N; assay: In vitro anti-mycoplasmal MIC; details: Friis broth, 0.9% agarose, 6 days, 37° C.
# [50] = test system: M. suipneumoniae HK(2); assay: In vitro anti-mycoplasmal MIC; details: Friis broth, 0.9% agarose, 6 days, 37° C.
# [51] = test system: M. suipneumoniae J2206/183b; assay: In vitro anti-mycoplasmal MIC; details: Friis broth, 0.9% agarose, 6 days, 37° C.
# [52] = test system: M. suipneumoniae NB12; assay: In vitro anti-mycoplasmal MIC; details: Friis broth, 0.9% agarose, 6 days, 37° C.
# [53] = test system: M. pneumoniae ATCC 15492; assay: In vitro anti-mycoplasmal MIC; details: Friis broth, 0.9% agarose, 6 days, 37° C.
# [54] = test system: M. suipneumoniae LABER; assay: In vitro anti-mycoplasmal MIC; details: Mesomycoplasma hyopneumoniae, 144 h, Friis broth, 0.9% agarose, 6 days, 37° C., read-out: MIC
# [55] = test system: M. suipneumoniae Str.11; assay: In vitro anti-mycoplasmal MIC; details: Friis broth, 0.9% agarose, 6 days, 37° C.
# [56] = test system: M. hyosynoviae ATCC 25591; assay: In vitro anti-mycoplasmal MIC; details: 144 h, Friis broth, 0.9% agarose, 6 days, 37° C., read-out: MIC
# [57] = test system: M. suipneumoniae MS16; assay: In vitro anti-mycoplasmal MIC; details: Mesomycoplasma hyopneumoniae, 144 h, Friis broth, 0.9% agarose, 6 days, 37° C., read-out: MIC
# [58] = test system: M. bovigenitalium ATCC 14173; assay: In vitro anti-mycoplasmal MIC; details: 144 h, Friis broth, 0.9% agarose, 6 days, 37° C., read-out: MIC
structure (smiles),measurement,setting,value
"CCOC(=O)C(F)=C(C)CC1OCC(CC2OC2C(C)C(C)O)C(O)C1O [Example 2, Ethyl-4-[5S-(2S,3S-epoxy-5S-hydroxy-4S-methylhexyl)-3R, 4R-dihydroxytetrahydropyran-2S-yl]-2-fluoro-3-methylbut-2(E)-enoate]",MIC,[1],10.0 µg/mL
same,MIC,[2],10.0 µg/mL
same,MIC,[3],10.0 µg/mL
same,MIC,[4],0.25 µg/mL
same,MIC,[5],> 100.0 µg/mL
same,MIC,[6],100.0 µg/mL
same,MIC,[7],> 100.0 µg/mL
same,MIC,[8],50.0 µg/mL
same,MIC,[9],100.0 µg/mL
same,MIC,[10],> 100.0 µg/mL
same,MIC,[11],> 100.0 µg/mL
same,MIC,[12],10.0 µg/mL
same,MIC,[13],> 100.0 µg/mL
same,MIC,[14],100.0 µg/mL
same,MIC,[15],25.0 µg/mL
same,MIC,[16],50.0 µg/mL
same,MIC,[17],10 µg/mL
same,MIC,[18],10 µg/mL
same,MIC,[19],> 100.0 µg/mL
same,MIC,[20],> 100.0 µg/mL
same,MIC,[21],> 100.0 µg/mL
same,MIC,[22],100.0 µg/mL
same,MIC,[23],50.0 µg/mL
same,MIC,[24],50.0 µg/mL
same,MIC,[25],5 µg/mL
same,MIC,[26],10.0 µg/mL
same,MIC,[27],5 µg/mL
same,MIC,[28],10.0 µg/mL
same,MIC,[29],> 80.0 µg/mL
same,MIC,[30],> 80.0 µg/mL
same,MIC,[31],> 80.0 µg/mL
same,MIC,[32],> 80.0 µg/mL
same,MIC,[33],> 80.0 µg/mL
same,MIC,[34],40.0 µg/mL
same,MIC,[35],80.0 µg/mL
same,MIC,[36],80.0 µg/mL
same,MIC,[37],20.0 µg/mL
same,MIC,[38],80.0 µg/mL
same,MIC,[39],40.0 µg/mL
same,MIC,[40],80.0 µg/mL
same,MIC,[41],40.0 µg/mL
same,MIC,[42],40.0 µg/mL
same,MIC,[43],80.0 µg/mL
same,MIC,[44],20.0 µg/mL
same,MIC,[45],> 80.0 µg/mL
same,MIC,[46],40.0 µg/mL
same,MIC,[47],2.5 µg/mL
same,MIC,[48],5 µg/mL
same,MIC,[49],10.0 µg/mL
same,MIC,[50],10.0 µg/mL
same,MIC,[51],10.0 µg/mL
same,MIC,[52],10.0 µg/mL
same,MIC,[53],10.0 µg/mL
same,MIC,[54],5 µg/mL
same,MIC,[55],5.0 µg/mL
same,MIC,[56],10 µg/mL
same,MIC,[57],5 µg/mL
same,MIC,[58],0.5 µg/mL
